Drawing on ChEMBL document CHEMBL1157761, “Cytotoxic nor-chamigrane and chamigrane endoperoxides from a basidiomycetous fungus” (J Nat Prod, 2010), this text covers IC50 for three compounds.

Converted amounts (≈) assume the structure as drawn.

The test system of assay [1] is BT-474. Nature of the assay: Cytotoxicity against human BT474 cells by MTT assay. In kind it is functional, cell-based. Background: Tetrazolium dyes change colour on reduction, which living cells bring about.
Assay [2] relates to SW-620. The assay is described as follows: Cytotoxicity against human SW620 cells by MTT assay. In kind it is functional, cell-based.

`CC1(C)CCC(=O)[C@H]2OO[C@@H]3C[C@@]21CC[C@]3(O)CO` [MERULINS C]: the figures for the IC50 in assay [1] and in assay [2] were 1.57 µg/mL (≈ 5.81 µM) and 4.11 µg/mL (≈ 15.2 µM), respectively.
For `CC1(C)CCC(=O)[C@@]2(C)OO[C@@H]3C[C@@]12CC[C@H]3O` [MERULIN A] the same measures were 4.98 µg/mL (≈ 19.6 µM) and 4.84 µg/mL (≈ 19 µM).
In the same order, the values of `CC1(C)CCC(=O)[C@H]2OO[C@@H]3C[C@]21CC[C@@]3(O)CO` [MERULINS B] are more than 10 µg/mL and more than 10 µg/mL.
